In US11339165B2, “Pyrazolopyrimidines having activity against the respiratory syncytial virus (RSV)” (priority 2017, dated 2022):
Like-named read-outs stand apart in the source and are kept apart here.

How the values were obtained:
[1] = test system: rgRSV224 virus; experiment: Antiviral activity: rgRSV224 (GFP) replication in HeLa cells; format: cell-based, respiratory syncytial virus (RSV)
[2] = test system: HeLa cells; experiment: Cytotoxicity in HeLa cells (ATP content, ATPlite kit); details: read-out: TOX HELA CC50; HeLa cells, three days incubation, ATP content
Experimental: (§1) Black 384-well clear-bottom microtiter plates (Corning, Amsterdam, The Netherlands) were filled via acoustic drop ejection using the echo liquid handler (Labcyte, Sunnyvale, Calif.). 200 nL of compound stock solutions (100% DMSO) were transferred to the assay plates. 9 serial 4-fold dilutions of compound were made, creating per quadrant the same compound concentration. The assay was initiated by adding 10 μL of culture medium to each well (RPMI medium without phenol red, 10% FBS-heat inactivated, 0.04% gentamycin (50 mg/mL). All addition steps are done by using a multidrop dispenser (Thermo Scientific, Erembodegem, Belgium). Next, rgRSV224 virus (MOI=1) diluted in culture medium was added to the plates. rgRSV224 virus is an engineered virus that includes an additional GFP gene (Hallak L K, Spillmann D, Collins P L, Peeples M E. Glycosaminoglycan sulfation requirements for respiratory syncytial virus infection; Journal of virology (2000), 74(22), 10508-13) and was in-licensed from the NIH (Bethesda, Md., USA). Finally, 20 μL of a HeLa cell suspension (3,000 cells/well) were plated. Medium, virus- and mock-infected controls were included in each test. The wells contain 0.05% DMSO per volume. Cells were incubated at 37° C. in a 5% CO2 atmosphere. Three days post-virus exposure, viral replication was quantified by measuring GFP expression in the cells by an in house developed MSM laser microscope (Tibotec, Beerse, Belgium). The EC50 was defined as the 50% inhibitory concentration for GFP expression. In parallel, compounds were incubated for three days in a set of white 384-well microtiter plates (Corning) and the cytotoxicity of compounds in HeLa cells was determined by measuring the ATP content of the cells using the ATPlite kit (Perkin Elmer, Zaventem, Belgium) according to the manufacturer's instructions. The CC50 was defined as the 50% concentration for cytotoxicity.

[3] = Pharmacokinetics after single intravenous administration in the fasted male Beagle dog; format: in vivo; details: intravenous administration at 1 mg/kg in dogs, first 8 hours after administration
Experimental: E.2 Pharmacokinetics after Single Intravenous Administration in the Fasted Male Beagle Dog
The test compound was dissolved in a 20% (w/v) hydroxypropyl-β-cyclodextrin (HP-beta-CD) solution at a final concentration of 2 mg/mL for the intravenous formulation. NaOH was added to the formulations to facilitate dissolution and after total dissolution the pH was adjusted with HCl to 8.4. The intravenous (IV) formulation was made isotonic with mannitol. Prior to dosing, all formulations were stored at room temperature and protected from light. The IV formulation was dosed in a cephalic vein at 0.5 mL/kg to obtain a final dose of 1 mg/kg.
Three male Beagle dogs, with a mean weight of 10.9±1.1 kg, were used. A complete concentration time profile was obtained from each individual animal. Prior to dosing, animals were fasted overnight. Their standard dry diet was returned to them at 2 hours post dose. Tap water was available ad libitum.
From each individual animal, blood samples were taken at 7 and 20 minutes, 1, 2, 4, 7, 24 and 48 hours after intravenous dose administration. […] Plasma samples were analysed using a qualified research LC-MS/MS method. The key analytical performance (linearity, upper and lower limit of quantification, accuracy and precision) of the method was reported together with the plasma concentrations. The lower limit of quantification (LLOQ) was 10.0 ng/mL. […]

[4] = in vitro; details: human, TOX HELA CC50 (μM)
Experimental: as §1

[5] = test system: HeLa cells
Experimental: as §1

[6] = Cytotoxicity in HeLa cells (ATP content, ATPlite kit); details: human
Experimental: as §1

[7] = rgRSV224 virus (MOI=1), HeLa cells, GFP expression three days post-virus exposure, read-out: RSV HELA EC50
[8] = human respiratory syncytial virus, HeLa, 72 h, read-out: RSV HELA EC50 (μM), rgRSV224 virus (MOI=1), HeLa cells, GFP expression three days post-virus exposure

Work on `C[C@@H]1c2ccccc2CCN1C(=O)c1cc(C2CC2)n2nc(-c3ccc(N4C[C@@H](C(N)=O)C[C@H]4C)cc3F)cc2n1` (relative stereo) [Compound 34, (3*S,5*R)-1-(4-{7-cyclopropyl-5-[(1R)-1-methyl-1,2,3,4-tetrahydroisoquinoline-2-carbonyl]pyrazolo[1,5-a]pyrimidin-2-yl}-3-fluorophenyl)-5-methylpyrrolidine-3-carboxamide] yielded an EC50 [1, 7] of 0.037 µM and a CC50 [2] of 23.1 µM.
With `CNC(=O)[C@H]1CCN(c2ccc(-c3cc4nc(C(=O)N5CCc6ccccc6[C@H]5C)cc(C5CC5)n4n3)c(F)c2)C1` [Compound 37, (3S)-1-(4-{7-Cyclopropyl-5-[(1R)-1-methyl-1,2,3,4-tetrahydroisoquinoline-2-carbonyl]pyrazolo[1,5-a]pyrimidin-2-yl}-3-fluorophenyl)-N-methylpyrrolidine-3-carboxamide] the EC50 [1, 8] was 0.019 µM, the plasma concentration profile [3] was “does not show this rapid decline” and the melting point was 123.18 °C. It also gave a CC50 at 3 days [4] of 62 µM.
For `C[C@@H]1c2ccccc2CCN1C(=O)c1cc(C2CC2)n2nc(-c3ccc(N4C[C@@H](C(N)=O)C[C@@H]4C)cc3F)cc2n1` (relative stereo) [Compound 35, (3*S,5*S)-1-(4-{7-cyclopropyl-5-[(1R)-1-methyl-1,2,3,4-tetrahydroisoquinoline-2-carbonyl]pyrazolo[1,5-a]pyrimidin-2-yl}-3-fluorophenyl)-5-methylpyrrolidine-3-carboxamide], the EC50 [1, 7] was 0.033 µM and the CC50 [5] was 25.5 µM.
With `C[C@@H]1c2ccccc2CCN1C(=O)c1cc(C2CC2)n2nc(-c3ccc(N4C[C@H](O)[C@@H](O)C4)cc3F)cc2n1` [Compound 102, (7-cyclopropyl-2-(4-((3S,4S)-3,4-dihydroxypyrrolidin-1-yl)-2-fluorophenyl)pyrazolo[1,5-a]pyrimidin-5-yl)((R)-1-methyl-3,4-dihydroisoquinolin-2(1H)-yl)methanone] the EC50 [1, 8] was 0.026 µM, the plasma concentration profile [3] was “does not show this rapid decline” and the CC50 at 3 days [4] was 44.4 µM.
Work on `C[C@@H]1c2ccccc2CCN1C(=O)c1cc(C2CC2)n2nc(-c3ccc(N4CC[C@@H](NP(C)(C)=O)C4)cc3F)cc2n1` [Compound 30, (1R)-2-(7-Cyclopropyl-2-{4-[(3R)-3-[(dimethylphosphoryl)amino]pyrrolidin-1-yl]-2-fluorophenyl}pyrazolo[1,5-a]pyrimidine-5-carbonyl)-1-methyl-1,2,3,4-tetrahydro-isoquinoline] yielded an EC50 [1, 8] of 0.036 µM and a CC50 at 3 days [6] of 33.9 µM.
Compound `C[C@@H]1c2ccccc2CCN1C(=O)c1cc(C2CC2)n2nc(-c3ccc(N4CCC(O)(CO)C4)cc3F)cc2n1` (single isomer, unassigned) [Compound 104] has an EC50 ([1]; read-out: RSV HELA EC50, rgRSV224 virus (MOI=1), HeLa cells, GFP expression three days post-virus exposure) of 0.025 µM and a CC50 ([5]; human, 3 days) of 28.2 µM.
In the case of `C[C@@H]1c2ccccc2CCN1C(=O)c1cc(C2CC2)n2nc(-c3ccc(N4CC[C@H](NP(C)(C)=O)C4)cc3F)cc2n1` [Compound 31, (1R)-2-(7-Cyclopropyl-2-{4-[(3S)-3-[(dimethylphosphoryl)amino]pyrrolidin-1-yl]-2-fluorophenyl}pyrazolo[1,5-a]pyrimidine-5-carbonyl)-1-methyl-1,2,3,4-tetrahydro-isoquinoline], the EC50 [1, 8] is reported as 0.036 µM and the CC50 at 3 days [6] is reported as 39.1 µM.
